Results on three compounds are retold here after patent US20250332198A1, “TARGETED ELIMINATION OF SENESCENT CELLS BY GAMMA-DELTA T CELLS” (SENS RESEARCH FOUNDATION, priority 2022, published 2025).

Molecules are shown by their SMILES.

The test system of one data set is macrophages. The note with it: as reported; cited from earlier work.
The target in data set [1] is T1, 3-hydroxy-3-methylglutaryl-CoA reductase (HMGCR) (Homo sapiens, UniProt P04035).
T1 construct: endogenous in cells; host or cells: senescent cells (SC)
T1 sequence (P04035 1-888): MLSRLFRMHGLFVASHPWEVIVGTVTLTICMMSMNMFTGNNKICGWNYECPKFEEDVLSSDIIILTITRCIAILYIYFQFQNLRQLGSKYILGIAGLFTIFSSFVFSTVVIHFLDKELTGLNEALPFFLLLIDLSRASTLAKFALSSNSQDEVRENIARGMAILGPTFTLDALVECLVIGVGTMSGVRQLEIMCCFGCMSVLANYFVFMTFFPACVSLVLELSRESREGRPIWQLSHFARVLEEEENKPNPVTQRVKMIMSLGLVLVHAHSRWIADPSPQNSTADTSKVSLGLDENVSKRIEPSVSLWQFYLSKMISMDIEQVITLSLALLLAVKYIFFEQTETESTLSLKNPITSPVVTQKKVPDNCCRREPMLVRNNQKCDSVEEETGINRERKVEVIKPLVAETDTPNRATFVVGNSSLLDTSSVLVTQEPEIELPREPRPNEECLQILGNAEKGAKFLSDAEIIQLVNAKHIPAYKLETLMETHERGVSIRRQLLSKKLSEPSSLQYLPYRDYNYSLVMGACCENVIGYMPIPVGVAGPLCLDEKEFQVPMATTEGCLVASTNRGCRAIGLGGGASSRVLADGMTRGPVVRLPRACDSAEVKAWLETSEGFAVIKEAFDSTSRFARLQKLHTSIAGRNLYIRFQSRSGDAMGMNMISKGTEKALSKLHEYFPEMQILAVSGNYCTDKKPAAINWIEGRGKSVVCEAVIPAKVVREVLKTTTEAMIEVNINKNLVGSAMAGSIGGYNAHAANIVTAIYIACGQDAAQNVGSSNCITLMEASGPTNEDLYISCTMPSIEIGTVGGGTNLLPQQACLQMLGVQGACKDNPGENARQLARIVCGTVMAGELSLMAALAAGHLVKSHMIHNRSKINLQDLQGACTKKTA
In words: Mevalonate pathway inhibition in SC, effect on cytotoxicity by Vδ2 T cells. The class given is cell-based. Conditions: SC treated with the HMGCR inhibitor. The text has this:
NKG2D recognizes target cells based on their surface expression of ligands such as MICA. […] Briefly, phosphoantigens such as IPP (an intermediate metabolite of mevalonate pathway) bind to the intracellular domain of BTN3A, leading to a conformational change in the extracellular domain that is recognized by γδTCR. […] To determine the role of mevalonate pathway, we inhibited the rate-limiting enzyme 3-hydroxy-3-methylglutaryl-CoA reductase (HMGCR) with mevastain in SC and tested the effect on cytotoxicity by Vδ2 T cells.

Another data set has as its system platelet. The note with it: risk of causing thrombocytopenia; cited from earlier work.

In the case of `O=c1c(O)c(-c2ccc(O)c(O)c2)oc2cc(O)ccc12` [fisetin], the effect on macrophages result with macrophages is “destroy macrophages”.
Take `CC[C@H](C)C(=O)O[C@H]1CCC=C2C=C[C@H](C)[C@H](CC[C@@H]3C[C@@H](O)CC(=O)O3)[C@H]21` [mevastatin]: the “effect on Vδ2 T cell-mediated cytotoxicity toward SC” value in data set [1] is on record as “resistant to gamma delta T cells”; in data set [1] (listed as mevastain), “significantly reduced Vδ2 T cell-mediated cytotoxicity”.
In the case of `CC1(C)CCC(c2ccc(Cl)cc2)=C(CN2CCN(c3ccc(C(=O)NS(=O)(=O)c4ccc(N[C@H](CCN5CCOCC5)CSc5ccccc5)c(S(=O)(=O)C(F)(F)F)c4)cc3)CC2)C1` [ABT263, navitoclax], in the data set with macrophages, the effect on macrophages entry is given as “destroy macrophages”. Besides, the platelet toxicity result with platelet was “dose-limiting platelet toxicity”.
